Data as given in publication PMC5291759 (Bioorganic & medicinal chemistry, 2016).
“Also recorded” adds a separate entry of the source. Like-named read-outs stand apart in the source and are kept apart here.

How the values were obtained:
[1] = system: Lmna^H222P/H222P mice; conditions: cited from earlier work
[2] = system: Lmna^H222P/H222P mice; assay: Histology of quadriceps muscle; assay type: in vivo; conditions: placebo 3 of 6
[3] = system: HT-29 cells; assay: Anti-proliferative activity on HT-29 cells; assay type: cell-based; conditions: HT-29 anti-proliferative IC50
[4] = system: Lmna^H222P/H222P mice; assay: Cardiac fibrosis score; assay type: in vivo
[5] = system: Lmna^H222P/H222P mice; assay type: in vivo; conditions: for Amylase (serum): 6 weeks, mean ± standard error, n = 10
[6] = system: ERK1/2 phosphorylation; assay: Phosphorylated ERK1/2 relative to total ERK1/2 in tissues of treated mice; assay type: in vivo, Lmna^H222P/H222P mice; conditions: six weeks
[7] = system: ERK1/2 phosphorylation in HEK-293 cells; assay: Phosphorylated ERK1/2 immunoblot in cultured HEK-293 cells; assay type: cell-based; conditions: 1 µM to 0.001 µM, 24 h
[8] = system: Lmna^H222P/H222P mice; assay type: in vivo; conditions: 6 weeks
[9] = system: Lmna^H222P/H222P mice; assay: Serum creatine phosphokinase activity; assay type: in vivo
[10] = system: Lmna^H222P/H222P mice; assay: Forelimb grip fatigue index; assay type: in vivo; conditions: 6 mg/kg/day
[11] = system: Lmna^H222P/H222P mice; assay: Quantitative real-time RT-PCR of Nppa and Myl7 mRNA in hearts; assay type: in vivo

In the case of `COc1cccc(-c2cc(=O)c3ccccc3o2)c1N` [PD98059], the “effect on left ventricular and skeletal muscle function and survival” value [1] is given as “beneficial effect on left ventricular and skeletal muscle function and prolongs survivial”.
With `O=S1(=O)Nc2c(cc(F)c(F)c2Nc2ccc(I)cc2F)OCC(O)C(O)CC12CC2` (stereo not drawn) [compound 8] the “quadriceps samples with internally nucleated fibers” value ([2]; 3 mg/kg/day) was 1 of 5, the “quadriceps samples with internally nucleated fibers” value ([2]; 6 mg/kg/day) was 0 of 5 and the “potency of fast moving isomer compared to the slow moving one” value [3] was “approximately 25 fold”. The “cardiac fibrosis score (grade 0-4) compared to placebo” value ([4]; 3 mg/kg/day) was “statistically significant decreases in fibrosis”, the “cardiac fibrosis score (grade 0-4) compared to placebo” value ([4]; 6 mg/kg/day) was “statistically significant decreases in fibrosis” and the “Amylase (serum)” value ([5]; 3 mg/kg/day) was 1,372 ± 282.9 U/L. The “Amylase (serum)” value ([5]; 6 mg/kg/day) was 1,086 ± 40.18 U/L, the “liver, kidney or pancreatic toxicity by serum chemistry” value ([5]; 6 weeks of treatment at a dose up to 6 mg/kg/day) was “did not produce significant liver, kidney or pancreatic toxicity” and the “phosphorylated ERK1/2 relative to total ERK1/2 in heart” value ([6]; 3 mg/kg/day oral gavage) was “significant decreases”. The “phosphorylated ERK1/2 relative to total ERK1/2 in liver” value ([6]; 3 mg/kg/day oral gavage) was “significant decreases”, the “phosphorylated ERK1/2 relative to total ERK1/2 in quadriceps muscle” value ([6]; 3 mg/kg/day oral gavage) was “only the higher dose produced a significant decrease” and the “phosphorylated ERK1/2 relative to total ERK1/2 in heart” value ([6]; 6 mg/kg/day oral gavage) was “significant decreases”. The “phosphorylated ERK1/2 relative to total ERK1/2 in liver” value ([6]; 6 mg/kg/day oral gavage) was “significant decreases”, the “phosphorylated ERK1/2 relative to total ERK1/2 in quadriceps muscle” value ([6]; 6 mg/kg/day oral gavage) was “significant decrease” and the ERK1/2 phosphorylation [7] was “essentially abolished ERK1/2 phosphorylation”. The “Kidney histology, individual sample” value ([8]; 3 mg/kg/day) was “Normal”, the “Liver histology, individual sample” value ([8]; 3 mg/kg/day) was “Normal; also recorded: Slightly greater vacuolation in some zones; similar to 7606 but milder; could be preparation artifact” and the “Spleen histology, individual sample” value ([8]; 3 mg/kg/day) was “Mildly increased number of hemosiderin-laden macrophages suggestive of old hemorrhage Somewhere; also recorded: Normal (hemosiderin-laden macrophages present but at approximately normal levels)”. For the same compound, the “Kidney histology, individual sample” value ([8]; 6 mg/kg/day) was “Some lymphocytic inflammation around the renal pelvis (around the ureter) and occasional medium-sized arteries; more inflammation than 7623 and 7622; also recorded: Mostly normal but some mild lymphocytic inflammation around small arteries with occasional hemosiderin-laden macrophages”, the “Liver histology, individual sample” value ([8]; 6 mg/kg/day) was “Occasional hemosiderin laden macrophages. Some portal triads have mild lymphocytic inflammation; significance uncertain; also recorded: Normal; also recorded: Some intracellular vacuolation in some zones; similar to 7612; could be preparation artifact” and the “Spleen histology, individual sample” value ([8]; 6 mg/kg/day) was “Area of necrosis consistent with splenic infarct; moderately increased number of hemosiderin-laden macrophages suggestive of hemorrhage old somewhere; also recorded: Normal”. For the same compound, the “liver, kidney or spleen histopathology, overall” value ([8]; 3 or 6 mg/kg/day) was “no consistent or specific abnormalities in liver, kidney or spleen histopathology”, the “serum creatine phosphokinase activity compared to placebo” value ([9]; 3 mg/kg/day) was “but not 3 mg/kg/day of 8 significantly reduced” and the “serum creatine phosphokinase activity compared to placebo” value ([9]; 6 mg/kg/day) was “significantly reduced”. The “forelimb grip fatigue index compared to placebo” value [10] was “significantly reduced”, the “cardiac Nppa mRNA compared to placebo” value ([11]; 3 mg/kg/day) was “significantly reduced” and the “cardiac Myl7 mRNA compared to placebo” value ([11]; 6 mg/kg/day) was “significantly decreased”. The “cardiac Nppa mRNA compared to placebo” value ([11]; 6 mg/kg/day) was “significantly reduced”.
In the case of `Cn1cnc2c(F)c(Nc3ccc(Br)cc3Cl)c(C(=O)NOCCO)cc21` [selumetinib], the “effect on left ventricular and skeletal muscle function and survival” value [1] is listed as “beneficial effect on left ventricular and skeletal muscle function and prolongs survivial”.
